“Also recorded” adds a separate entry of the source.
What was measured:
FVIII = FVIII activation in rTF/FVIIa-initiated reactions with FX, prothrombin, FVIII, FV (immunoblot); conditions: thrombin blocked with 4 μM DAPA
Description: Quantification of generated FVIIIa-A1 calibrated with known quantities of the fragment. (B) FVIIIa activity calculated from FXa generation in reactions as in (A), but with 10 nM FIXa added and incubated for 180 s at 37° C. (n=4-12). FXa generation depend-ent on FVIIIa-FIXa activity was calculated by subtracting FXa generated by FVIIa and FIXa added individually from that by FVIIa/FIXa added together. (C) FVIIIa activity generated and calculated in reaction as in (A, B) but with the addition of 10 nM TFPIα. Results in A (bottom), B and C—shown as 25th-75th percentile bars, min-to-max whiskers, line at the median; or min-to-max floating bars with line at the mean when n≤3—were analyzed by ANOVA/Tukey tests. ***P<0.001; NS, not significant.
Reactions in 50 mM Tris-buffered saline, pH 7.4, with 0.1% bovine serum albumin included 0.7 nM FVIII, 3 nM FV, 135 nM FX and 1 μM prothrombin without/with 4 μM DAPA. TFPI and other inhibitors were added as indicated. […] After quenching the reaction with 10 mM EDTA, generated FXa was measured with S-2765 (180 μM). FVIIIa procoagulant activity was measured as FIXa-dependent FXa generation; FVIIIa procoagulant activity generated by the nascent TF-FVIIa-FXa complex was calculated by subtracting the amount of FXa produced in reactions initiated by FVIIa and FIXa individually from that produced in reactions initiated by FVIIa/FIXa combined. […]

thrombin generation (TG) = assay type: biochemical, human; conditions: recalcified PRP containing CTI
Description: TG in PRP or reconstituted PRP was evaluated as known to those skilled in the art. Native PRP was prepared from blood collected into final 12.9 mM trisodium citrate by centrifugation at 250 g for 10 min at 25° C. The platelet count was adjusted to 180×10^3/μl by dilution with homologous PPP obtained by centrifuging PRP for 10 min at 1,500 g. CTI was added at 30-50 μg/ml depending on calibrated potency as assessed by FXIIa inhibition. Reconstituted PRP was prepared with washed platelets prepared from normal PRP by adding ⅕th volume of acid citrate-dextrose (71 mM citric acid, 85 mM trisodium citrate, and 111 mM dextrose, pH 4.5) and 5 U/ml apyrase; following centrifugation at 1,500 g for 10 minutes at 25° C., the platelet pellet was resuspended into PPP lacking FVII (George King Bio-Medical) or FIX (Haematologic Technologies) to give a final platelet count of 180·103/μl PRP was mixed with varying concentrations of rTF and/or 20 pM FIXa in 96-well microtiter plates. The reaction was started by adding 18 mM CaCl2 with 360 μM of the thrombin substrate benzyloxycarbonyl-glycyl-glycyl-L-arginine coupled to the fluorogenic group 7-amido-4-methylcoumarin (Gly-Gly-Arg-AMC; Bachem Americas, Torrance, Calif.). Fluorescence was measured continuously at 37° C. for up to 40 min in a spectrofluorometer (355/460 nm excitation/emission). The rate of fluorescence intensity increase as a function of time (dF/dt) was calculated with Turbo Delphi 2006 (Borland Software Corporation, Austin, Tex.) and converted to thrombin-equivalent concentration (nM) using a calibration curve. The endogenous thrombin potential (ETP) of samples, i.e. total generated thrombin activity, was determined from the area under the TG curve. When specified, TG was measured with a discontinuous 2-stage assay with a detection limit of 5 pM. For this, TG was induced by 0.15 pM rTF and 18 mM CaCl2 in reconstituted FVII-deficient PRP including 30 μg/ml CTI with 400 pM WT FVIIa or iFVIIa without or with 20 pM FIXa. After incubation for up to 11 min at 37° C., reactions were terminated by adding 20 mM EDTA and generated thrombin was measured using the highly sensitive thrombin substrate H-D-CHA-Ala-Arg-AMC.2AcOH (Pefafluor TH, Pentapharm, Basel, Switzerland) at 50 μM concentration. In other experiments, TG was induced by TFiFVIIa-FXa-TFPI or TF-iFVIIa-FXa-NAPc2. These stable complexes were pre-formed by incubating 5 nM FXa, 10 nM TF, 10 nM iFVIIa and 40 nM TFPI or NAPc2 in the presence of 2.5 mM CaCl2 for 2 min at 37° C. Complexes were added into FVII-deficient PRP, followed by incubation for 8 min at 37° C.
PRP was prepared from blood collected into trisodium citrate (final concentration 0.0129 M) by centrifugation for at 250 g for 10 min at 25° C.; the platelet count was adjusted at 180.103 per μl by diluting with homologous platelet-poor plasma (PPP) obtained by centrifuging PRP for an additional 10 min at 1,500 g. When indicated, CTI was added at 30 to 50 μg/ml depending on calibrated potency measured by FXIIa inhibition. Reconstituted PRP was prepared by adding normal washed platelets into PPP (without or with CTI) lacking FVII, FVIII (both from George King Bio-Medical, Overland Park, Kans.) or FIX (Haematologic Technologies). […] generation in PRP was measured as described by Hemker et al. 53 μl of PRP was mixed in 96-well microtiter plates with 15 μl of a solution containing rTF and/or one of the intrinsic coagulation pathway proteases—FXIIa, FXIa or FIXa—to achieve the indicated final concentrations. Antibodies or inhibitors were also added at this point at the concentration indicated for each specific case. The reaction was started by adding between 15 and 20 μl of 100 mM CaCl2 and 2 mM fluorogenic substrate, benzyloxycarbonyl-glycyl-glycyl-L-arginine-7-amido-4-methylcoumarin (Gly-Gly-Arg-AMC; Bachem Americas, Torrance, Calif.).

immobilized rTF = assay: Blood perfusion over immobilized rTF, volume of platelet aggregates and fibrin; assay type: cell-based, human
Description: (§1) Glass coverslips treated with 0.2 mg/ml poly-L-lysine for 6 h at 37° C. were coated with rTF for 18-20 hours at 37° C. or 2.5 mg/ml acid-insoluble type I collagen for 2 hours at 22-25° C. Then they were rinsed with pH 7.4 buffered-saline, assembled in a rectangular flow chamber with a 125 μm-high silicon gasket and positioned on a confocal microscope stage for analysis. Venous blood for testing was collected into final 10.9 mM trisodium citrate using a plastic syringe for normal volunteers or Vacutainer tubes (Becton Dickinson, Buccinasco, Milan) for patients and controls. Before perfusion at a flow rate yielding an initial wall shear rate of 300 s^−1 maintained with a syringe pump (Harvard Apparatus, Holliston, Mass.), CaCl2 was added to obtain 1.29 mM Ca^2+. In the blood of patients—potentially hypercoagulable—and related controls, lepirudin (50 nM) was also added to neutralize thrombin possibly generated before testing. […] For experiments with WT and mutant FVIIa, cells from group O citrated blood, containing 50 μg/ml CTI and 10 U/ml (ADPase activity) apyrase, were washed free of plasma by sequential centrifugation steps at 1500 g for 7 min. After the first, plasma was replaced with an equal volume of calcium-free Tyrode buffer, pH 6.5, with 5 U/ml apyrase; then with buffer and 1.25 U/ml apyrase; and finally with human FVII deficient plasma (George King Bio-Medical, Overland Park, Kans.) up to the original blood volume. Cell count results in reconstituted and native blood were within 90%. Experiments in Milan (Italy) were performed with a Leica TCS SP5 microscope and HCX PL APO 63x/1.40 NA oil immersion objective (Leica Microsystems GmbH, Wetzlar, Germany); in La Jolla (California) with a Zeiss Axiovert 135M/LSM 410 and Plan-Apochromat 40x/1.40 NA oil immersion objective (Carl Zeiss AG, Oberkochen, Germany).
(§2) Platelets adhering and aggregating onto the surface were visualized by adding quinacrine-HCl (mepacrine; 10 μg/ml; Sigma-Aldrich) to blood. Deposited fibrin was visualized with Alexa Fluor 546-labeled (Invitrogen) mouse monoclonal IgG (50 μg/ml) specific for the B chain of mouse and human fibrin (HB-8545; ATCC). Blood was perfused for 3-5 min at 37° C. with a syringe pump (Harvard Apparatus Inc.) at a flow rate yielding an initial (in the unobstructed flow path) wall shear rate of 300 s^−1. This was followed by buffer (DMEM) for 2 minutes to facilitate fibrin quantification by confocal z section analysis using a Zeiss Axiovert 135M/LSM 410 microscope (Carl Zeiss) and Plan-Apochromat×63/1.40 NA oil immersion objective. Image analysis was performed with NIH ImageJ64. Deposited fibrin volume was measured from confocal sections collected at 4 preset positions in the flow chamber. Total volume of deposited platelets and fibrin was calculated from the sum of the respective area coverage per section multiplied by the z interval (2 μm). All studies involving human subjects were conducted following institutionally approved protocols.
TF-coated glass coverslips were perfused with venous blood at a wall shear rate of 300 s^−1. A Zeiss Axiovert 135M/LSM 410 and Plan-Apochromat 40x/1.40 NA oil immersion objective (Carl Zeiss AG, Oberkochen, Germany) was used to visualize platelets/leukocytes and fibrin stained with mepacrine and a specific anti-body, respectively. Image analysis to calculate volumes was performed as described herein.
Glass coverslips treated with 0.2 mg/ml poly-L-lysine for 6 h at 37° C. were coated with rTF for 18-20 hours at 37° C., rinsed with buffered-saline and assembled in a rectangular flow chamber with a 125 μm-high silicon gasket. Venous blood was collected into final 10.9 mM trisodium citrate using a plastic syringe. CaCl2 was added to obtain 1.29 mM Ca^2+ before perfusion at a wall shear rate of 300 s-1 maintained with a syringe pump (Harvard Apparatus, Holliston, Mass.). […]

[1] = system: fibrillar collagen type I; assay: Blood perfusion over fibrillar collagen type I, volume of platelet aggregates and fibrin; assay type: cell-based, human; conditions: blood of treated patients, collagen surface
Description: The volume of platelet aggregates and deposited fibrin was measured by confocal microscopy. Statistical analysis by one-way ANOVA and Tukey post-test. *P<0.05; **P<0.01; ***P<0.001.
as §1, with “Cell count results in reconstituted and native blood were within 90%.” left out
as §2, with “Blood was perfused for 3-5 min at 37° C. with a syringe pump (Harvard Apparatus Inc.) at a flow rate yielding an initial (in the unobstructed flow path) wall shear rate of 300 s^−1.” left out, “Image analysis was performed with NIH ImageJ64.” left out, “All studies involving human subjects were conducted following institutionally approved protocols.” left out

initial TG = assay: Discontinuous 2-stage assay of initial TG in platelet-poor plasma; assay type: biochemical, human
Description: FIG. 21 illustrates, in accordance with embodiments herein, TG assays in FVIII-deficient PPP without or with anti-FVIII inhibitors. (A) Initial TG in discontinuous 2-stage assay was induced by adding 150 fM rTF/200 pM FIXa and 5 μM PL, followed by incubation for 5 min at 37° C. Each column indicates mean+SEM (n=3) of generated FIIa. (B) Comparison of dose-response curve of added FVIII in TG in FVIII-deficient plasma by discontinuous 2-stage assay with that by continuous assay.
FIG. 22 illustrates, in accordance with embodiments herein, FVIIIa-dependent and -independent TG in plasma from Coumadin-treated patients. FVIIIa-dependent TG was induced by adding 150 fM rTF/200 pM FIXa with 1.3 μM PL, while FVIIIa-independent TG was by 1.2 pM rTF with 1.3 μM PL. Each column indicates mean+SEM (n=3) of generated FIIa after 3 min of incubation.
To establish highly sensitive TG assay method, the inventors made a screening of FIIa substrates with high affinity and turnover rate by determining kinetic parameters and then constructed a calibration curve with known concentrations of a FIIa calibrator. In the studies, they found two fluorogenic substrates H-D-cyclohexyl-alanyl-alanyl-argininyl-amidomethylcoumarin (AMC) (Pefafluor TH) and butyloxycarbonyl-valyl-prolinyl-argininyl-AMC (V-P-R-AMC) were suitable for quantifying much low concentrations of FIIa activity with a detection limit of ˜5 pM (FIG. 17). Initial TG was measured with “discontinuous 2-stage assay” using the high sensitive substrate. Briefly, TG was initiated by combined addition of rTF and FIXa with 18 mM CaCl2 into plasma, followed by incubation for up to 5 min at 37° C. After incubation, reactions were terminated with 20 mM EDTA and generated FIIa was measured using the highly sensitive FIIa substrate Pefafluor TH or V-P-R-AMC. In the assays, combined addition of 150 fM rTF and 200 pM FIXa time-dependently produced FIIa in normal platelet-poor plasma (PPP) prepared from healthy donors (FIG. 18A). […] To further validate the assay method, reproducibility of the TG assay method was examined by determination of intra-assay and inter-assay coefficient of variations (CV) using manual assay protocol.

TF-FVIIa = assay: FXa generation by TF-FVIIa in reactions with purified components; assay type: biochemical, human; conditions: reconstituted system

## CCC1CCN(C(=O)C(CCCN=C(N)N)NS(=O)(=O)c2cccc3c(N(C)C)cccc23)CC1 (centres unmarked) [DAPA, dansylarginine N-(3-ethyl-1,5-pentanediyl)amide]
FVIII
  FVIIIa still detectable: ~15%

## COc1ccc(-n2nc(C(N)=O)c3c2C(=O)N(c2ccc(N4CCCCC4=O)cc2)CC3)cc1 [apixaban]
Thrombin generation (TG)
  difference in dose response between rivaroxaban and apixaban: ~3 fold

## CC(=O)CC(c1ccccc1)c1c(O)c2ccccc2oc1=O (centres unmarked) [warfarin]
Immobilized rTF; blood of treated patients, high density TF surface
  fibrin deposition: significantly reduced
Immobilized rTF; blood of treated patients, higher rTF coating concentration, 300 s^-1, 5 min
  volume of deposited fibrin: markedly reduced fibrin formation
Immobilized rTF; blood of treated patients, lower rTF coating concentration, 300 s^-1, 5 min
  volume of deposited fibrin vs untreated controls: markedly smaller
Immobilized rTF; blood of treated patients, rTF coating 20 and 40 pM
  volume of platelet aggregates vs controls: significantly reduced on both rTF surfaces
[1]
  mean volume of platelet aggregates vs controls: not significantly different
  volume of deposited fibrin vs controls: significantly reduced; also recorded: markedly reduced
Initial TG; 1.2 pM rTF alone without FIXa, patient plasma
  FVIIIa-independent TG: abolished even at lower INR
Initial TG; patient plasma with INR 1.5, 150 fM rTF/200 pM FIXa, 1.3 μM PL, 3 min
  initial FVIIIa-dependent TG: ~15 % of normal plasma
Initial TG; patient plasma with INR 2.9, 150 fM rTF/200 pM FIXa, 1.3 μM PL, 3 min
  initial FVIIIa-dependent TG: ~5 % of normal plasma
Initial TG; patient plasma with much higher INR values
  initial FVIIIa-dependent TG: completely abolished

## TFPI with protein S: TFPI with protein S (PS) cofactor
TF-FVIIa
  reduction of FXa produced by TF-FVIIa: > 75%

## recombinant [Leu1-Thr2]-63-desulfohirudin [lepirudin]
Immobilized rTF; lepirudin 50 nM, preliminary experiments
  effect on deposited fibrin volume in the flow chamber: limited effect

— patent publication US11136370B2, “Compositions and methods for thrombin generation assay” (The Scripps Research Institute, priority 2016, dated 2021)
